From US12264173B2 (GILEAD SCIENCES, INC., priority 2020, dated 2025)
Where two headings read alike, the source gives them in different places.

Tests used:
Format in all cases: cell-based
[1] = test system: RSV A2; experiment: RSV NHBE EC50 (RSV A2 antiviral assay in NHBE cells); settings: read-out: RSV NHBE EC50
Summary of the method: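 NHBE cells (7,500/well, passage ≤6) given 3-fold serially diluted compound (0.05% DMSO final), then infected with RSV A2 at 1×10^4.5 tissue culture infectious doses/mL. After 4 days at 37 °C, viability measured by CellTiter-Glo luminescence at 25 °C.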

[2] = test system: RSV strain A2; experiment: microbe, parasite or virus in culture; settings: Table 3, HEp-2 cells, RSV A2, 4 days, read-out: RSV HEp-2 EC50
Summary of the method: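 Cytopathic-effect protection assay: HEp-2 cells (50,000/mL) infected with pre-titered RSV A2 onto 3-fold serial compound dilutions, incubated 4 days at 37° C. Cell viability read by CellTiter-Glo luminescence; percent inhibition derived against 0% and 100% virus-inhibition controls.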

[3] = test system: DENV2 replicon; experiment: DENV-2 Huh-7 Rep EC50 (replicon luminescence)
Summary of the method: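 Huh-7 cells carrying a DENV2 replicon, 5,000 cells/well, were incubated with dosed compounds for 48 h at 37° C. EnduRen live-cell substrate was added 1.5 h before luminescence reading. EC50 came from dose-response against DMSO-only wells.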

[4] = human respiratory syncytial virus, NHBE, 96 h, Table 3, NHBE cells, RSV A2, 4 days
[5] = human respiratory syncytial virus, HEp-2, 96 h
[6] = Dengue virus, DENV2, Huh-7, 48 h, read-out: DENV-2 REP Huh7 EC50
[7] = Table 3, NHBE cells, RSV A2, 4 days
[8] = Table 3, Huh-7 DENV2 replicon cells, 48 hours, read-out: DENV-2 REP Huh7 EC50
[9] = human respiratory syncytial virus, NHBE, Table 5 comparative activity, 2',3'-OH vs -OC(O)iPr

Row | Compound | EC50 [1, 4] [nM] | EC50 [2, 5] [nM] | EC50 [3, 6] [nM] | EC50 [1, 7] [nM] | EC50 [2] [nM] | EC50 [3, 8] [nM] | EC50 [1, 9] [nM] | EC50 ([3]; Dengue virus, DENV2, Huh-7, read-out: DENV Rep EC50) [nM]
1 | CCC(=O)O[C@H]1[C@H](c2ccc3c(N)ncnn23)O[C@](C#N)(CO[P@@](=O)(N[C@@H](C)C(=O)OC)Oc2ccccc2)[C@H]1OC(=O)CC (single isomer, unassigned) [Example 143] | 18 | 92 | 5570 | – | – | – | – | –
2 | CC(C)C(=O)O[C@H]1[C@H](c2ccc3c(N)ncnn23)O[C@](C#N)(COP(=O)(N[C@@H](C)C(=O)OC2COC2)Oc2ccccc2)[C@H]1OC(=O)C(C)C (single isomer, unassigned) [Example 186] | – | – | – | 4 | 41 | 4220 | – | –
3 | COC(=O)[C@H](C)N[P@](=O)(OC[C@@]1(C#N)O[C@@H](c2ccc3c(N)ncnn23)[C@H](OC(=O)C(C)C)[C@@H]1OC(=O)C(C)C)Oc1ccccc1 (single isomer, unassigned) [Example 140] | 14 | 42 | 5270 | – | – | – | 14 | –
4 | CC(C)C(=O)O[C@H]1[C@H](c2ccc3c(N)ncnn23)O[C@](C#N)(COP(=O)(N[C@@H](C)C(=O)OCC2CCOCC2)Oc2ccccc2)[C@H]1OC(=O)C(C)C (single isomer, unassigned) [Example 183] | – | – | – | 50 | 69 | 3650 | – | –
5 | CCC(CC)COC(=O)[C@H](C)N[P@](=O)(OC[C@@]1(C#N)O[C@@H](c2ccc3c(N)ncnn23)C(OC(=O)C(C)C)[C@@H]1OC(=O)C(C)C)Oc1ccccc1 (stereo in doubt) [Example 86, (2R,3S,4R,5S)-5-(4-aminopyrrolo[2,1-f][1,2,4]triazin-7-yl)-2-cyano-2-((((S)-(((S)-1-(2-ethylbutoxy)-1-oxopropan-2-yl)amino)(phenoxy)phosphoryl)oxy)methyl) tetrahydrofuran-3,4-diyl bis(2-methylpropanoate)] | 24 | 100 | 8950 | – | – | – | – | –
6 | CCC(=O)O[C@H]1[C@H](c2ccc3c(N)ncnn23)O[C@](C#N)(CO[P@@](=O)(N[C@@H](C)C(=O)OCC2CC2)Oc2ccccc2)[C@H]1OC(=O)CC [Example 99] | – | – | – | 14 | 58 | 6310 | – | –
7 | CCC(=O)O[C@H]1[C@H](c2ccc3c(N)ncnn23)O[C@](C#N)(CO[P@@](=O)(N[C@@H](C)C(=O)OC2CCCCC2)Oc2ccccc2)[C@H]1OC(=O)CC [Example 82, (2R,3S,4S,5S)-5-(4-aminopyrrolo[2,1-f][1,2,4]triazin-7-yl)-2-cyano-2-((((S)-(((S)-1-(cyclohexyloxy)-1-oxopropan-2-yl)amino)(phenoxy)phosphoryl)oxy)methyl) tetrahydrofuran-3,4-diyl dipropionate] | 32 | 58 | 7630 | – | – | – | – | –
8 | CCOC(=O)[C@H](C)N[P@](=O)(OC[C@@]1(C#N)O[C@@H](c2ccc3c(N)ncnn23)[C@H](OC(=O)C(C)C)[C@@H]1OC(=O)C(C)C)Oc1ccccc1 (single isomer, unassigned) [Example 144] | 22 | 34 | 6170 | – | – | – | 22 | 6170
9 | CC(C)C(=O)O[C@H]1[C@H](c2ccc3c(N)ncnn23)O[C@](C#N)(COP(=O)(N[C@@H](C)C(=O)OCC2COC2)Oc2ccccc2)[C@H]1OC(=O)C(C)C (single isomer, unassigned) [Example 201] | – | – | – | 14 | 92 | 7690 | – | –
10 | CC(C)C(=O)O[C@H]1[C@H](c2ccc3c(N)ncnn23)O[C@](C#N)(CO[P@@](=O)(N[C@@H](C)C(=O)OC2CCCCC2)Oc2ccccc2)[C@H]1OC(=O)C(C)C [Example 77, (2R,3S,4S,5S)-5-(4-aminopyrrolo[2,1-f][1,2,4]triazin-7-yl)-2-cyano-2-((((S)-(((S)-1-(cyclohexyloxy)-1-oxopropan-2-yl)amino)(phenoxy)phosphoryl)oxy)methyl) tetrahydrofuran-3,4-diyl bis(2-methylpropanoate)] | 24 | 57 | 5390 | – | – | – | – | –
11 | COC(=O)[C@H](C)N[P@](=O)(OC[C@@]1(C#N)O[C@@H](c2ccc3c(=N)n(COP(=O)(O)O)cnn23)[C@H](OC(=O)C(C)C)[C@@H]1OC(=O)C(C)C)Oc1ccccc1 [Example 259, (2R,3S,4S,5S)-2-cyano-5-(4-imino-3-((phosphonooxy)methyl)-3,4-dihydropyrrolo[2,1-f][1,2,4]triazin-7-yl)-2-((((S)-(((S)-1-methoxy-1-oxopropan-2-yl)amino)(phenoxy)phosphoryl)oxy)methyl)tetrahydrofuran-3,4-diyl bis(2-methylpropanoate)] | 11 | 36 | 5360 | – | – | – | – | –
12 | CCC(=O)O[C@H]1[C@H](c2ccc3c(N)ncnn23)O[C@](C#N)(CO[P@@](=O)(N[C@@H](C)C(=O)OC(C)C)Oc2ccccc2)[C@H]1OC(=O)CC [Example 90, (2R,3S,4S,5S)-5-(4-Aminopyrrolo[2,1-f][1,2,4]triazin-7-yl)-2-cyano-2-((((S)-(((S)-1-isopropoxy-1-oxopropan-2-yl)amino)(phenoxy)phosphoryl)oxy)methyl) tetrahydrofuran-3,4-diyl dipropionate] | 45 | 109 | 24300 | – | – | – | – | –
